11 compounds from ChEMBL document CHEMBL1201862, “PubChem BioAssay data set” (2004) can be followed below.

Among the test systems are SNB-19; HOP-62; HCC 2998; HL-60; SK-MEL-28; M14; MDA-MB-231; UACC-62; T47D; SK-MEL-2; HCT-15; NCI-H460; NCI-H23; U-251; OVCAR-5; PC-3; HCT-116; CCRF-CEM; RPMI-8226; BT-549.
Experiment in all cases: NCI anticancer screen, dose series, 48 h

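Test compounds were applied to cells in 96-well plates for 48 hours at 5 doses. GI50 = concentration required for 50% inhibition of growth.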 Active and inactive are the calls of the source. Rule as the data show it: active = GI50 up to about 1.1 µM and inactive = higher.

In the case of `Cc1ccc(C)c(COCCOCn2c(=O)[nH]c(=O)c3cc(Br)ccc32)c1`, the GI50 is > 100 µM (inactive) in the test on SNB-19; 41.7 µM (inactive) in the test on HOP-62; > 100 µM (inactive) in the test on HCC 2998; > 100 µM (inactive) with HL-60; 39.5 µM (inactive) in the test on SK-MEL-28; > 100 µM (inactive) with M14. The GI50 with MDA-MB-231 was 66.4 µM (inactive); in the test with UACC-62 it was 53 µM (inactive); in the test on T47D it was 74.6 µM (inactive); with SK-MEL-2, > 100 µM (inactive); in the test on HCT-15, above 100 µM; in the test on NCI-H460, > 100 µM (inactive). Further, the GI50 in the test on NCI-H23, in the test on U-251, in the test with OVCAR-5, with PC-3, with HCT-116 and with CCRF-CEM was > 100 µM (inactive) throughout.
In the case of `CC(=O)N1CN2C(=O)CCC2c2cc(C)ccc21` (stereo not given), the GI50 in the test with SNB-19, with HOP-62, in the test with HCC 2998, with HL-60, with SK-MEL-28 and in the test on M14 was > 100 µM (inactive) in each case. Further, the GI50 with MDA-MB-231 is > 100 µM (inactive); with UACC-62, > 100 µM (inactive); with T47D it was > 100 µM (inactive); in the test with SK-MEL-2, > 100 µM (inactive); with HCT-15, above 100 µM; with RPMI-8226 it was > 100 µM (inactive). Besides, the GI50 with NCI-H460, with NCI-H23, in the test on U-251, in the test on OVCAR-5, in the test with PC-3 and in the test with HCT-116 was > 100 µM (inactive) throughout. Further, the GI50 in the test with CCRF-CEM was > 100 µM (inactive).
Turning to `CC(C)[N+]([O-])(CCCNc1c2ccccc2nc2cccc([N+](=O)[O-])c12)C(C)C`, the GI50 is 0.0726 µM (active) with SNB-19; 0.0525 µM (active) in the test with HOP-62; < 0.01 µM (active) in the test on HCC 2998; < 0.0428 µM (active) in the test with HL-60; < 0.01 µM (active) in the test on SK-MEL-28; 0.0347 µM (active) in the test with M14. Besides, the GI50 in the test with MDA-MB-231 was < 0.01 µM (active); in the test with UACC-62 it was 0.148 µM (active); with SK-MEL-2, 0.234 µM (active); in the test on RPMI-8226, < 0.0179 µM (active); with BT-549, < 0.0395 µM (active); in the test with NCI-H460, 0.06 µM (active). For the same compound, the GI50 in the test with NCI-H23 is < 0.0206 µM (active); in the test on U-251, < 0.0453 µM (active); in the test on OVCAR-5, < 0.0395 µM (active); in the test with PC-3, < 0.0473 µM (active); in the test on HCT-116, < 0.0204 µM (active); in the test on CCRF-CEM, < 0.0412 µM (active).
With `O=C(/C=C/c1ccc2c(c1)OCO2)c1ccc(O)cc1`, the GI50 in the test with SNB-19 is 16.8 µM (inactive); in the test on HOP-62, 26.8 µM (inactive); with HCC 2998, 17.9 µM (inactive); with HL-60, 5.25 µM (inactive); in the test on SK-MEL-28 it was 19.3 µM (inactive); with M14 it was 18.1 µM (inactive). Besides, the GI50 was 17.4 µM (inactive) with MDA-MB-231; 16.8 µM (inactive) in the test with UACC-62; 16.9 µM (inactive) with SK-MEL-2; 13.4 µM in the test on HCT-15; 14.2 µM (inactive) with BT-549; 15 µM (inactive) in the test on NCI-H460. Also, the GI50 in the test with NCI-H23 was 15.5 µM (inactive); in the test on U-251 it was 13.8 µM (inactive); in the test with OVCAR-5 it was 17.5 µM (inactive); in the test with PC-3 it was 15 µM (inactive); in the test with HCT-116 it was 13.4 µM (inactive); with CCRF-CEM it was 8.07 µM (inactive).
As to `CN(/N=C/c1cccc2cccnc12)c1ccc(Cl)cc1[N+](=O)[O-]`, the GI50 in the test with SNB-19, in the test with HOP-62, in the test on HCC 2998, in the test with HL-60, in the test with M14 and with MDA-MB-231 was > 100 µM (inactive) throughout. The GI50 was > 100 µM (inactive) with UACC-62; > 100 µM (inactive) with SK-MEL-2; above 100 µM in the test with HCT-15; > 100 µM (inactive) in the test on RPMI-8226; > 100 µM (inactive) in the test on BT-549; 45.7 µM (inactive) in the test with NCI-H460. Also, the GI50 in the test on NCI-H23, in the test with U-251, in the test on OVCAR-5, in the test with PC-3, with HCT-116 and in the test with CCRF-CEM was > 100 µM (inactive) in each case.
With `CC1OC(=O)c2ccccc2NC1=O` (stereo not given), the GI50 with SNB-19, in the test with HOP-62, with HL-60, with SK-MEL-28, in the test with M14 and in the test with MDA-MB-231 was > 100 µM (inactive) throughout. In addition, the GI50 in the test with UACC-62 was > 100 µM (inactive); with SK-MEL-2, > 100 µM (inactive); in the test on HCT-15, above 100 µM; in the test with RPMI-8226 it was > 100 µM (inactive); in the test with BT-549, > 100 µM (inactive); in the test with NCI-H460, > 100 µM (inactive). Further, the GI50 with NCI-H23, in the test on U-251, with OVCAR-5, with PC-3, in the test with HCT-116 and in the test with CCRF-CEM was > 100 µM (inactive) each time.
As to `O=C1c2cc3c(cc2CC12Cc1ccccc1C2)CCC3`, the GI50 in the test on SNB-19 is > 100 µM (inactive); with HOP-62, 27.8 µM (inactive); with HCC 2998 it was 31 µM (inactive); with HL-60, 25.5 µM (inactive); with SK-MEL-28, 57.4 µM (inactive); in the test on M14, 23.2 µM (inactive). The GI50 was 23.6 µM (inactive) in the test on MDA-MB-231; 45.9 µM (inactive) in the test on T47D; 23.5 µM (inactive) with SK-MEL-2; 33.9 µM in the test with HCT-15; 21.9 µM (inactive) in the test on RPMI-8226; 25.8 µM (inactive) with NCI-H460. In addition, the GI50 with NCI-H23 is 50.5 µM (inactive); in the test on U-251, 37.6 µM (inactive); in the test on OVCAR-5, 52.6 µM (inactive); in the test with PC-3, 34 µM (inactive); with HCT-116 it was 22.2 µM (inactive); with CCRF-CEM, 30.5 µM (inactive).
Take `CSC(Cc1ccc2c(c1)Sc1ccccc1O2)=[N+]1CCOCC1`: the GI50 in the test on SNB-19 was 83.9 µM (inactive); in the test with HOP-62, > 100 µM (inactive); in the test on HCC 2998 it was 91.8 µM (inactive); in the test on HL-60, 37.9 µM (inactive); with SK-MEL-28, 80.7 µM (inactive); with M14, 72.9 µM (inactive). In addition, the GI50 in the test on MDA-MB-231 is > 100 µM (inactive); in the test on UACC-62 it was 58.5 µM (inactive); in the test on T47D, 65.5 µM (inactive); in the test on SK-MEL-2, > 100 µM (inactive); in the test with HCT-15, 43.5 µM; in the test on RPMI-8226, 49.8 µM (inactive). For the same compound, the GI50 in the test on NCI-H460 was 48.2 µM (inactive); with NCI-H23 it was 40.7 µM (inactive); in the test on U-251, 48.1 µM (inactive); in the test on OVCAR-5, > 100 µM (inactive); in the test on PC-3, 44.7 µM (inactive); in the test with HCT-116, 41.4 µM (inactive).
In the case of `CC(C)[Si](OC1=CCCCCC12C(=O)N(C)c1ccccc12)(C(C)C)C(C)C` (stereo not given), the GI50 in the test on SNB-19 was 14.9 µM (inactive); in the test on HOP-62, 21.6 µM (inactive); with HCC 2998, 21.7 µM (inactive); in the test with HL-60, 17.1 µM (inactive); with SK-MEL-28, 23.6 µM (inactive); in the test with M14 it was 23.3 µM (inactive). Also, the GI50 in the test with MDA-MB-231 is 22.4 µM (inactive); with UACC-62 it was 18.2 µM (inactive); with T47D, 2.88 µM (inactive); in the test with SK-MEL-2 it was 18.2 µM (inactive); with HCT-15 it was 17.6 µM; in the test on RPMI-8226, 15.1 µM (inactive). Further, the GI50 was 17.6 µM (inactive) in the test on NCI-H460; 19.5 µM (inactive) in the test on NCI-H23; 18.5 µM (inactive) in the test with U-251; 16.9 µM (inactive) in the test on OVCAR-5; 25.5 µM (inactive) in the test on PC-3; 17.1 µM (inactive) with CCRF-CEM.
`O=C1/C(=C\c2ccc([N+](=O)[O-])cc2)Sc2scc(-c3ccc(O)c(O)c3)[n+]21`: the GI50 with SNB-19 was 21.6 µM (inactive); in the test with HOP-62, 13.4 µM (inactive); with HCC 2998 it was 4.97 µM (inactive); in the test with HL-60 it was 2.37 µM (inactive); with SK-MEL-28, 12.3 µM (inactive); with M14, 5.81 µM (inactive). The GI50 is 10.9 µM (inactive) in the test on MDA-MB-231; 5.61 µM (inactive) in the test with UACC-62; 12.8 µM (inactive) in the test with T47D; 14.7 µM (inactive) with SK-MEL-2; 2.33 µM in the test with HCT-15; 2.55 µM (inactive) in the test with RPMI-8226. In addition, the GI50 in the test with NCI-H460 was 4.06 µM (inactive); in the test with NCI-H23 it was 14.9 µM (inactive); in the test on U-251, 6.4 µM (inactive); in the test with OVCAR-5, 15.3 µM (inactive); with PC-3, 5.71 µM (inactive); with HCT-116, 4.2 µM (inactive). Besides, in the test with CCRF-CEM, the GI50 is 2.68 µM (inactive).
As to `COC(=O)c1c(C(=O)OC)c2ccccn2c1-c1cc(OC)c(Br)c(=O)o1`, the GI50 with SNB-19, in the test with HOP-62, in the test with HCC 2998, in the test on HL-60, in the test with SK-MEL-28 and in the test on M14 was > 100 µM (inactive) in each case. Besides, the GI50 in the test with MDA-MB-231 is 83.8 µM (inactive); with UACC-62 it was > 100 µM (inactive); in the test on T47D it was > 100 µM (inactive); with SK-MEL-2, > 100 µM (inactive); in the test on HCT-15, above 100 µM; in the test with RPMI-8226 it was > 100 µM (inactive). Further, the GI50 with NCI-H460, in the test with NCI-H23, in the test on OVCAR-5, in the test on PC-3, with HCT-116 and in the test on CCRF-CEM was > 100 µM (inactive) each time.
